Source: publication PMC11411213 (Journal of Molecular Cell Biology, 2024)

Assays:
[1] = tested on: intracellular ROS levels in Calu-3 cells; type: cell-based, human
in vitro = conditions: human
[2] = tested on: pseudotyped vesicular stomatitis virus (VSV) that contains SARS-CoV-2 Spike protein; type: cell-based
SARS-CoV-2 Delta strain = conditions: mouse, in vivo

## N[C@@H](CCC(=O)N[C@@H](CS)C(=O)NCC(=O)O)C(=O)O [GSH, glutathione]
[1]
  intracellular ROS levels after 24 h treatment: reduced ROS levels

## O=C(O)c1cc(/N=N/c2ccc(S(=O)(=O)Nc3ccccn3)cc2)ccc1O [Sulfasalazine]
In vitro
  CC50: > 500 µM
Calu-3 cells
  cytotoxic activity (in words): no cytotoxicity at any of the tested concentrations

## COc1cc(Nc2ncc(F)c(Nc3ccc4c(n3)NC(=O)C(C)(C)O4)n2)cc(OC)c1OC [Tamatinib]
In vitro
  CC50: 5.74 ± 0.354 µM
Calu-3 cells
  cytotoxic activity (in words): cytotoxic in the micromolar range

## COc1cc2c(Nc3ccc(Br)cc3F)ncnc2cc1OCC1CCN(C)CC1 [Vandetanib]
In vitro
  CC50: 3.76 ± 0.132 µM
Calu-3 cells
  cytotoxic activity (in words): cytotoxic in the micromolar range

## MKI-1
Calu-3 cells
  CC50: 0.892 ± 0.001 µM
  cytotoxic activity (in words): cytotoxic in the high nanomolar range

## N-acetyl cysteine [NAC]
[1]
  intracellular ROS levels after 24 h treatment: reduced ROS levels
[2]
  effect on SARS-CoV-2 entry (Spike pseudovirus luciferase): did not observe any effect
Calu-3 cells
  CC50: > 5000 µM
SARS-CoV-2 Delta strain
  IHC analysis of the N protein in the lungs: confirmed by immunohistochemistry
  levels of viral transcripts N and RdRp in lungs (qPCR): significantly lower levels of viral transcripts than untreated mice

## imidazole ketone erastin [IKE]
[1]
  intracellular ROS levels after 24 h treatment: reduced the basal ROS level
  intracellular ROS levels after SARS-CoV-2 infection with 24 h pretreatment: prevented virus-induced ROS bursts
  intracellular ROS levels over time after administration: biphasic trend, with an initial increase at early time points (0–6 h) followed by a substantial decrease at a later time point (24 h)
Calu-3 cells
  CC50: 9.29 ± 0.324 µM
